# Entries after “also recorded” stand apart in the source; their conditions may differ.
# What was measured:
# acute GVHD = assay: Double-blind, randomized placebo-controlled phase II study of prophylactic oral BDP: efficacy and exploratory analyses; format: in vivo, human
# Text: Patients who had allogeneic hematopoietic cell transplantation with marrow or growth factor-mobilized blood cells from HLA-A, -B, -C, -DRB1, and HLA-DQB1-allele matched or single-allele or antigen mismatched related or unrelated donors after a myeloablative conditioning regimen (>800 cGy total body irradiation [TBI] and cyclophosphamide or high-dose busulfan and cyclophosphamide) were eligible for this study. Patients who had transplantation with cord blood cells and those who were enrolled in studies that involved depletion of T cells from the graft or administration of T cell-depleting antibodies before transplantation were excluded. Patients with body weight <35 kg were also excluded because lower-dose formulations of the study drug were not available. All participants gave informed consent as documents with the use of forms approved by institutional review committees at the Fred Hutchinson Cancer Research Center and Hackensack University Medical Center.
# (§1) All participants received a standard regimen of methotrexate and tacrolimus after transplantation as prophylaxis against acute GVHD.[10] Methotrexate was given at 15 mg/m^2 on day 1 after HCT and 10 mg/m^2 on days 3, 6 and 11. […] Administration of the study drug began at the start of the conditioning regimen and continued through day 75 after transplantation. Patients who were not able to ingest the study drug because of mucositis continued their participation in the study. […] Institutional standards were used for antibacterial and antifungal prophylaxis.
# The primary pre specified endpoint of the study was development of acute GVHD with severity sufficient to require systemic immunosuppressive treatment on or before day 90 after transplantation such as: a) prednisone or its equivalent at a 1 mg/kg/day, b) systemic immunosuppressive agents other than those in the GVHD prophylactic regimen in lieu of high-dose glucocorticoids, or c) substitution of one calcineurin inhibitor for the other in the GVHD prophylactic regimen in order to treat overt GVHD. The following actions were not considered as an indication of acute GVHD with severity sufficient to require systemic immunosuppressive treatment: a) administration of high-dose glucocorticoids for indications other than acute GVHD, b) substitution of one calcineurin inhibitor for another in the GVHD prophylactic regimen in order to manage toxicity, c) increase in the dose of the calcineurin inhibitor originally prescribed for GVHD prophylaxis in order to suppress overt manifestations of acute GVHD. For purposes of the primary endpoint, extracorporeal photopheresis was considered as systemic immunosuppressive treatment, but administration of psoralen and UV irradiation was not.
# In the assessment of the acute GVHD index score, parenteral nutrition was employed as a surrogate for oral caloric intake less than 40% of requirements.
# For purposes of sample size estimation, we assumed that 60% of the participants in the placebo arm would require systemic glucocorticoid treatment for acute GVHD. […] Based on historical results from our center, we estimated a frequency of grade IIa GVHD at approximately 25%. […] An interim analysis was conducted after 69 patients were enrolled, with a plan to end the trial if the probability of rejecting the null hypothesis had been less than 33%. This criterion was not met, and the remaining patients were accrued as originally planned.
# The primary endpoint was analyzed as a binomial outcome with differences evaluated by the unadjusted x^2 test with stratification according to donor type (related vs. unrelated) and pretransplant risk category (chronic myeloid leukemia in chronic phase, refractory anemia without excess blasts or other hematologic malignancy in remission vs. more advanced malignancy). Other endpoints were evaluated by x^2 test, Student's t-test, Wilcoxon rank sum test or log-rank test as appropriate, with no adjustment to the computed significance level to account for the interim analysis. […]
# [1] = Same phase II study: assessment of safety (adverse outcomes, gastrointestinal adverse events, bacteremia, mucositis); format: in vivo
# Description: as §1
# The primary endpoint was analyzed as a binomial outcome with differences evaluated by the unadjusted x^2 test with stratification according to donor type (related vs. unrelated) and pretransplant risk category (chronic myeloid leukemia in chronic phase, refractory anemia without excess blasts or other hematologic malignancy in remission vs. more advanced malignancy). Other endpoints were evaluated by x^2 test, Student's t-test, Wilcoxon rank sum test or log-rank test as appropriate, with no adjustment to the computed significance level to account for the interim analysis. Results were analyzed with data available as of Sep. 15, 2010.
# These included the hazards of cytomegalovirus and invasive yeast or mold infection, cGVHD, death without recurrent malignancy, recurrent malignancy, death from any cause, and the composite of death or recurrent malignancy. […] Other gastrointestinal adverse events occurred infrequently.
# GVHD, bacteremia and recurrent malignancy were the most frequent serious adverse events. Other serious adverse events occurred at frequencies <5%. […] For this reason, we evaluated the distribution of all bacteremia episodes. Because participants took the study drug until day 75 after transplantation and then stopped, we included all bacteremia episodes that occurred before day 103. […] We observed a single episode of Enterococcus bacteremia among the 46 participants in the placebo arm, on day 15 after transplantation.
# Time-to-first event analyses were used to evaluate the risks of bacteremia in the BDP arm compared to the placebo arm. Follow-up was censored at 103 days after HCT, 28 days after the end of study drug administration. The hazard ratios were 1.38 (95% CI 0.8-2.5) for any bacteremia, 1.32 (95% CI 0.7-2.5) for gram-positive bacteremia, and 5.24 (95% CI 0.7-41) for Enterococcus bacteremia.
# For this reason, we evaluated the severity of mucositis in the two arms for the 118 patients who had evaluations by an oral medicine specialist on at least one occasion after transplantation at the FHCRC.
# adrenal function = assay: Cosyntropin stimulation test at approximately day 75 after transplantation; format: in vivo, human; conditions: 26 of the 30 participants tested in the BDP arm; no systemic glucocorticoid treatment; about day 75
# gastrointestinal GVHD = conditions: oral BDP plus 10 day course of prednisone (1 mg/kg/day) with 7 day taper; grade II gastrointestinal GVHD; cited from earlier work
# [2] = cited from earlier work
# [3] = BDP >90% adherent group, N = 50
# [4] = BDP patients with ≧90% adherence
smiles,measurement,setting,value
"CCC(=O)OCC(=O)[C@@]1(OC(=O)CC)[C@@H](C)C[C@H]2[C@@H]3CCC4=CC(=O)C=C[C@]4(C)[C@@]3(Cl)[C@@H](O)C[C@@]21C [BDP, beclomethasone 17,21-dipropionate]",Systemic treatment for GVHD among BDP patients with ≧90% adherence,"acute GVHD; 50 BDP patients, 27 treated",54%
same,Cumulative Prednisone Dose through Day 75 Post HCT,"acute GVHD; BDP 50-90% adherent, number 34",2105 mg
same,Mean of the Average Dose (prednisone) through Day 75 Post HCT,"acute GVHD; BDP 50-90% adherent, number 34",28.7 mg
same,Cumulative Prednisone Dose through Day 75 Post HCT,"acute GVHD; BDP <50% adherent, number 8",2048 mg
same,Mean of the Average Dose (prednisone) through Day 75 Post HCT,"acute GVHD; BDP <50% adherent, number 8",29.2 mg
same,"Overall Mortality, N (%)",acute GVHD; [3],7 (14) N (%)
same,"Relapse, N (%)",acute GVHD; [3],9 (18) N (%)
same,Cumulative Prednisone Dose through Day 75 Post HCT,"acute GVHD; BDP >90% adherent, number 50",1145 mg
same,Mean of the Average Dose (prednisone) through Day 75 Post HCT,"acute GVHD; BDP >90% adherent, number 50",15.4 mg
same,"BDP >90% adherent group requiring systemic treatment for acute GVHD before day 90, N (%)","acute GVHD; BDP N = 50, >90% adherent",27 (54) N (%)
same,"Systemic treatment for acute GVHD before day 90, N (%) PRIMARY ENDPOINT","acute GVHD; BDP N = 92, Table 5",62 (67) N (%)
same,"Gastrointestinal GVHD proven by biopsy, events",acute GVHD; BDP arm,44
same,"Secondary systemic treatment for GVHD, events",acute GVHD; BDP arm,8
same,"Topical treatment for acute GVHD, events",acute GVHD; BDP arm,58
same,Average weekly gut morbidity score (SD),acute GVHD; BDP arm N = 92,0.63 (0.36)
same,Average weekly gut morbidity score after day 21 (SD),acute GVHD; BDP arm N = 92,0.47 (0.48)
same,Average weekly liver morbidity score (SD),acute GVHD; BDP arm N = 92,0.11 (0.31)
same,"Average weekly overall morbidity score, mean (SD)",acute GVHD; BDP arm N = 92,1.22 (0.53)
same,Average weekly skin morbidity score (SD),acute GVHD; BDP arm N = 92,0.30 (0.42)
same,"Peak GVHD grade 0-1, N (%)",acute GVHD; BDP arm N = 92,31 (34) N (%)
same,"Peak GVHD grade IIa, N (%)",acute GVHD; BDP arm N = 92,41 (45) N (%)
same,"Peak GVHD grade IIb-IV, N (%)",acute GVHD; BDP arm N = 92,20 (22) N (%)
same,"Peak overall morbidity score, mean (SD)",acute GVHD; BDP arm N = 92,2.54 (0.62)
same,"Systemic treatment for acute GVHD before day 90, N (%)","acute GVHD; BDP arm N = 92, Table 2",60 (65) N (%)
same,"Cumulative mg/kg prednisone-equivalent systemic glucocorticoid dose to day 75, mean (SD)","acute GVHD; BDP arm N = 92, for GVHD, not including steroid treatment for other indications",33.1 (23.3) mg/kg
same,"Systemic treatment for acute GVHD, HR","acute GVHD; BDP arm compared to placebo arm, 95% CI 0.6-1.4",0.92
same,Participants given systemic glucocorticoid treatment for GVHD,"acute GVHD; BDP arm, 60 participants",65%
same,Grades IIb-III GVHD,"acute GVHD; BDP arm, peak OMI scores >20, seven of 36 participants",19%
same,Grades IIb-III GVHD,"acute GVHD; BDP arm, peak OMI scores ≦20, nine of 43 participants",21%
same,Cumulative incidence of grades III-IV GVHD,"acute GVHD; BDP arm, 95% CI 1%-12%",7%
same,"Systemic treatment for acute GVHD, events","acute GVHD; BDP arm, withdrawal or recurrent malignancy as competing event",61
same,Incidence of relapse,acute GVHD; [4],18%
same,Overall mortality,acute GVHD; [4],14%
same,"Secondary systemic treatment for GVHD, HR","acute GVHD; BDP vs placebo, 95% CI 0.2-1.9",0.65
same,"Topical treatment for acute GVHD, HR","acute GVHD; BDP vs placebo, 95% CI 0.6-1.4",0.89
same,"Gastrointestinal GVHD proven by biopsy, HR","acute GVHD; BDP vs placebo, 95% CI 0.7-2.2",1.26
same,Cumulative incidence of grades IIb-IV GVHD,"acute GVHD; day 100 after transplantation, BDP arm, 95% CI 13%-30%",22%
same,Cumulative incidence of grades IIa-IV GVHD,"acute GVHD; day 100 after transplantation, BDP arm, 95% CI 57%-76%",66%
same,"Death from any cause, events",[1]; BDP arm,22
same,"Death or recurrent malignancy, events",[1]; BDP arm,29
same,"Death without recurrent malignancy, events",[1]; BDP arm,10
same,"Death without recurrent malignancy, HR","[1]; BDP vs placebo, 95% CI 0.4-5.8",1.60
same,"Death or recurrent malignancy, HR","[1]; BDP vs placebo, 95% CI 0.5-1.7",0.93
same,"Death from any cause, HR","[1]; BDP vs placebo, 95% CI 0.5-2.0",0.95
same,Participants with Enterococcus bacteremia episodes among those who received total body irradiation,"[1]; BDP, of the 61 participants (both arms) with total body irradiation",9
same,Participants with Enterococcus bacteremia episodes among those who received busulfan and cyclophosphamide,"[1]; BDP, of the 77 participants (both arms)",1
same,"CMV viremia or disease, HR","[1]; human, in vivo",0.93
same,"CMV viremia or disease, events","[1]; human, in vivo",23
same,"Chronic GVHD requiring systemic treatment, HR","[1]; human, in vivo",1.05
same,"Chronic GVHD requiring systemic treatment, events","[1]; human, in vivo",31
same,"Colitis, N (%)","[1]; human, in vivo",0 (0) N (%)
same,"Enteritis, N (%)","[1]; human, in vivo",0 (0) N (%)
same,Episodes of Enterococcus bacteremia,"[1]; human, in vivo",12 episodes
same,Episodes of Enterococcus bacteremia after day 57,"[1]; human, in vivo",3 episodes
same,Episodes of Enterococcus bacteremia before day 17 after transplantation,"[1]; human, in vivo",9 episodes
same,Episodes of gram-negative bacteremia,"[1]; human, in vivo",15 episodes
same,"Esophagitis, N (%)","[1]; human, in vivo",8 (9) N (%)
same,"GI hemorrhage, N (%)","[1]; human, in vivo",2 (2) N (%)
same,"GI infection (any), N (%)","[1]; human, in vivo",22 (24) N (%)
same,"GI infection: C. difficile, N (%)","[1]; human, in vivo",16 (17) N (%)
same,"GI infection: CMV enteritis, N (%)","[1]; human, in vivo",2 (2) N (%)
same,"GI infection: Other viral infection, N (%)","[1]; human, in vivo",2 (2) N (%)
same,"GI infection: Other, N (%)","[1]; human, in vivo",3 (3) N (%)
same,"GI infection: Yeast or mold, N (%)","[1]; human, in vivo",0 (0) N (%)
same,"GI ulceration or erosion, N (%)","[1]; human, in vivo",5 (5) N (%)
same,"Gastritis, N (%)","[1]; human, in vivo",2 (2) N (%)
same,Gastrointestinal ulceration or erosion diagnosed by endoscopy,"[1]; human, in vivo",5 participants
same,"Ileus, N (%)","[1]; human, in vivo",1 (0) N (%)
same,"Invasive yeast or mold infection, HR","[1]; human, in vivo",0.50
same,"Invasive yeast or mold infection, events","[1]; human, in vivo",1
same,Number of serious adverse events related to bacteremia,"[1]; human, in vivo",14
same,Number of serious adverse events related to mucositis,"[1]; human, in vivo",5
same,Participants diagnosed with gastrointestinal infection,"[1]; human, in vivo",24%
same,"Recurrent malignancy, HR","[1]; human, in vivo",0.77
same,"Recurrent malignancy, events","[1]; human, in vivo",19
same,"Typhlitis, N (%)","[1]; human, in vivo",1 (1) N (%)
same,"Oral infection, N (%)","[1]; human, in vivo, po",3 (3) N (%)
same,Participants with Enterococcus bacteremia,"[1]; of the 92 participants in the BDP arm, before day 103",10 participants
same,Abnormal adrenal function,adrenal function,87%
same,Efficacy for treatment of gastrointestinal GVHD in two previous randomized trials,gastrointestinal GVHD,more effective than prednisone alone; also recorded: effective
same,Protein binding,[2],protein-bound
